{"source": "patent US20240016826A1", "about": "“COMPOSITION, PHARMACEUTICAL COMPOSITION, USE OF A STABLE TOPICAL COMPOSITION COMPRISING A NANOEMULSION AND OF AT LEAST ONE ANTILEISHMANIAL COMPOUND, AND METHOD FOR THE TREATMENT OF CUTANEOUS LEISHMANIASIS” (priority 2020, published 2024)", "origin": "cited, not measured here", "tested_on": "L. (L.) major", "details": "Old World patients, cutaneous leishmaniasis due to L. (L.) major (MOHEBALI et al., 2007)", "data": [{"smiles": "CCCCCCCCCCCCCCCCOP(=O)([O-])OCC[N+](C)(C)C", "note": "[miltefosine, hexadecylphosphocholine]", "values": [{"measurement": "cure rate", "result": 93, "unit": "%"}]}]}
